Assay results reported in paper PMC10730914, “Multiple independent losses of the biosynthetic pathway for two tropane alkaloids in the Solanaceae family” (Nature Communications, 2023).

Assays:
Settings in all cases: 200 µM NADPH, 0.1 M potassium phosphate pH 6.4, 30 °C
LcTRI = system: T1, LcTRI; experiment: NADPH consumption at […] nm, Michaelis-Menten fit; type: biochemical, Lycium chinense
T1 construct: gene TRI

McTRI = system: T2, McTRI; experiment: NADPH consumption at […] nm, Michaelis-Menten fit; type: biochemical, Mandragora caulescens
T2 construct: gene TRI

BaTRI = system: T3, BaTRI; experiment: NADPH consumption at […] nm, Michaelis-Menten fit; type: biochemical, Brugmansia arborea
T3 construct: gene TRI

[1] = system: CN1[C@@H]2CC[C@H]1CC(=O)C2; experiment: purified protein; type: biochemical, Solanum tuberosum

Molecule: CN1[C@@H]2CC[C@H]1CC(=O)C2 [compound 5, tropinone]
- Km (LcTRI): 2910 ± 140 µM
- Km (McTRI): 90 ± 10 µM
- Km (BaTRI): 310 ± 30 µM

Molecule: StTRI (Solanum tuberosum; A101V/A193G/L159V/V147L)
- Km [1]: 110 ± 10 µM

Molecule: StTRI (Solanum tuberosum; A101V/L159V)
- Km [1]: 280 ± 70 µM
- kcat [1]: 3.31 ± 0.20 s⁻¹
